In patent publication US20020106342A1, “Methods for treating atopic disorders” (priority 2000, published 2002):

System: skin fungal conditions
Test: Patients with skin fungal conditions treated with griseovulvin and an appropriate antibiotic, emollients ceased (Example 6)
Type: in vivo, human
From the text: Most patients received an antihistamine for the first ten days to control itch. The patients ceased the use of lotions and other emollients, as well as the use of local and systemic corticosteroids.

COC1=CC(=O)C[C@@H](C)[C@]12Oc1c(Cl)c(OC)cc(OC)c1C2=O [griseovulvin]
Appearance of "dry skin" (Patient A, after 35 days of treatment): cleared up considerably
Fungus on skin (Patient B, one week later): improved dramatically
Fungus on skin (Patient C, after treatment): significantly improved
Fungus growth on back of neck (Patient D, after seven weeks): significantly diminished
Fungal condition of skin (Patient F, after seven weeks of treatment): improving and peeling off
Fungal infection tinea barbae (Patient G, after seven weeks): significantly cleared
Skin with hair follicles infected by fungus (Patient H, after nine weeks of treatment): dramatically improved
